Assay results reported in ChEMBL document CHEMBL3885881, “DrugMatrix”.

Organism: Rattus norvegicus
Assay: DrugMatrix - Regimen: Daily Repeat
Type: toxicity, organism-based, Sprague-Dawley
Parameters: regimen Daily Repeat, gender Male, age 6-8 weeks
Conditions: in vivo, po, route oral GAVAGE, vehicle 100 % WATER; for ABSOLUTE BASOPHIL / ABSOLUTE EOSINOPHIL / ABSOLUTE LYMPHOCYTE / ABSOLUTE MONOCYTE / ABSOLUTE SEGMENTED NEUTROPHIL / BASOPHIL / EOSINOPHIL / ERYTHROCYTE COUNT / HEMATOCRIT / HEMOGLOBIN / LEUKOCYTE COUNT / LYMPHOCYTE / MEAN CORPUSCULAR HEMOGLOBIN / MEAN CORPUSCULAR HEMOGLOBIN CONCENTRATION / MEAN CORPUSCULAR VOLUME / MONOCYTE / NEUTROPHIL / NUCLEATED RED BLOOD CELLS / PLATELET COUNT: tissue Blood; for ALANINE AMINOTRANSFERASE / ALBUMIN / ALKALINE PHOSPHATASE / ASPARTATE AMINOTRANSFERASE / BLOOD UREA NITROGEN / CARBON DIOXIDE / CHLORIDE / CHOLESTEROL / CREATINE PHOSPHOKINASE / CREATININE / GLUCOSE / LACTATE DEHYDROGENASE / LIPASE / PHOSPHORUS / POTASSIUM / SODIUM / TOTAL BILIRUBIN / TOTAL PROTEIN / URIC ACID: tissue Plasma
[1] = 8 mg/kg, 120 h, dose level Low, time 5 day
[2] = 100 mg/kg, 72 h, dose level High, time 3 day
[3] = 100 mg/kg, 120 h, dose level High, time 5 day

For `CCN(C(C)=O)c1cccc(-c2ccnc3c(C#N)cnn23)c1` [ZALEPLON], the “ABSOLUTE BASOPHIL” value [1] was 0 CELLS/uL, the “ABSOLUTE EOSINOPHIL” value [1] was 56.67 CELLS/uL and the “ABSOLUTE LYMPHOCYTE” value [1] was 12514.33 CELLS/uL. For the same compound, the “ABSOLUTE MONOCYTE” value [1] was 39.33 CELLS/uL, the “ABSOLUTE SEGMENTED NEUTROPHIL” value [1] was 1223 CELLS/uL and the BASOPHIL [1] was 0%. The EOSINOPHIL [1] was 0.33%, the “ERYTHROCYTE COUNT” value [1] was 5.65 x10E6/uL and the HEMATOCRIT [1] was 36.27%. For the same compound, the HEMOGLOBIN [1] was 14.43 G/DL, the “LEUKOCYTE COUNT” value [1] was 13.83 x10E3/uL and the LYMPHOCYTE [1] was 90.67%. The “MEAN CORPUSCULAR HEMOGLOBIN” value [1] was 25.57 pg, the “MEAN CORPUSCULAR HEMOGLOBIN CONCENTRATION” value [1] was 39.8 G/DL and the “MEAN CORPUSCULAR VOLUME” value [1] was 64.17 fL. For the same compound, the MONOCYTE [1] was 0.33%, the NEUTROPHIL [1] was 8.67% and the “NUCLEATED RED BLOOD CELLS” value [1] was 0.33 /100WBC. The “PLATELET COUNT” value [1] was 1230.33 x10E3/uL, the “ALANINE AMINOTRANSFERASE” value [1] was 55.33 u/L and the ALBUMIN [1] was 4.17 G/DL. The “ALKALINE PHOSPHATASE” value [1] was 388.67 u/L, the “ASPARTATE AMINOTRANSFERASE” value [1] was 80.67 u/L and the “BLOOD UREA NITROGEN” value [1] was 14.33 mg/dL. For the same compound, the “CARBON DIOXIDE” value [1] was 31.67 mmol/L, the CHLORIDE [1] was 101.67 MEQ/L and the CHOLESTEROL [1] was 66.33 mg/dL. The “CREATINE PHOSPHOKINASE” value [1] was 267.33 u/L, the CREATININE [1] was 0.15 mg/dL and the GLUCOSE [1] was 126.67 mg/dL. For the same compound, the “LACTATE DEHYDROGENASE” value [1] was 359 u/L, the LIPASE [1] was 11.33 u/L and the PHOSPHORUS [1] was 11.67 mg/dL. The POTASSIUM [1] was 6.04 MEQ/L, the SODIUM [1] was 144.43 MEQ/L and the “TOTAL BILIRUBIN” value [1] was 0.17 mg/dL. For the same compound, the “TOTAL PROTEIN” value [1] was 6 G/DL, the “URIC ACID” value [1] was 1.4 mg/dL and the “ABSOLUTE BASOPHIL” value [2] was 0 CELLS/uL. For the same compound, the “ABSOLUTE EOSINOPHIL” value [2] was 0 CELLS/uL, the “ABSOLUTE LYMPHOCYTE” value [2] was 12984 CELLS/uL and the “ABSOLUTE MONOCYTE” value [2] was 96.67 CELLS/uL. For the same compound, the “ABSOLUTE SEGMENTED NEUTROPHIL” value [2] was 1352.67 CELLS/uL, the BASOPHIL [2] was 0% and the EOSINOPHIL [2] was 0%. For the same compound, the “ERYTHROCYTE COUNT” value [2] was 5.72 x10E6/uL, the HEMATOCRIT [2] was 36.9% and the HEMOGLOBIN [2] was 14 G/DL. The “LEUKOCYTE COUNT” value [2] was 14.43 x10E3/uL, the LYMPHOCYTE [2] was 90% and the “MEAN CORPUSCULAR HEMOGLOBIN” value [2] was 24.5 pg. The “MEAN CORPUSCULAR HEMOGLOBIN CONCENTRATION” value [2] was 37.97 G/DL, the “MEAN CORPUSCULAR VOLUME” value [2] was 64.5 fL and the MONOCYTE [2] was 0.67%. The NEUTROPHIL [2] was 9.33%, the “NUCLEATED RED BLOOD CELLS” value [2] was 0 /100WBC and the “PLATELET COUNT” value [2] was 1335.67 x10E3/uL. The “ALANINE AMINOTRANSFERASE” value [2] was 82.33 u/L, the ALBUMIN [2] was 4.13 G/DL and the “ALKALINE PHOSPHATASE” value [2] was 449.67 u/L. The “ASPARTATE AMINOTRANSFERASE” value [2] was 80 u/L, the “BLOOD UREA NITROGEN” value [2] was 11.67 mg/dL and the “CARBON DIOXIDE” value [2] was 33.33 mmol/L. For the same compound, the CHLORIDE [2] was 106 MEQ/L, the CHOLESTEROL [2] was 71 mg/dL and the “CREATINE PHOSPHOKINASE” value [2] was 245.67 u/L. For the same compound, the CREATININE [2] was 0.2 mg/dL, the GLUCOSE [2] was 139 mg/dL and the “LACTATE DEHYDROGENASE” value [2] was 132.33 u/L. For the same compound, the LIPASE [2] was 10 u/L, the PHOSPHORUS [2] was 11.2 mg/dL and the POTASSIUM [2] was 5.9 MEQ/L. For the same compound, the SODIUM [2] was 144.73 MEQ/L, the “TOTAL BILIRUBIN” value [2] was 0.17 mg/dL and the “TOTAL PROTEIN” value [2] was 5.93 G/DL. The “URIC ACID” value [2] was 1.4 mg/dL, the “ABSOLUTE BASOPHIL” value [3] was 0 CELLS/uL and the “ABSOLUTE EOSINOPHIL” value [3] was 0 CELLS/uL. For the same compound, the “ABSOLUTE LYMPHOCYTE” value [3] was 12362.67 CELLS/uL, the “ABSOLUTE MONOCYTE” value [3] was 101.33 CELLS/uL and the “ABSOLUTE SEGMENTED NEUTROPHIL” value [3] was 1236 CELLS/uL. The BASOPHIL [3] was 0%, the EOSINOPHIL [3] was 0% and the “ERYTHROCYTE COUNT” value [3] was 6.29 x10E6/uL. For the same compound, the HEMATOCRIT [3] was 38.53%, the HEMOGLOBIN [3] was 15 G/DL and the “LEUKOCYTE COUNT” value [3] was 13.7 x10E3/uL. For the same compound, the LYMPHOCYTE [3] was 89.33%, the “MEAN CORPUSCULAR HEMOGLOBIN” value [3] was 23.83 pg and the “MEAN CORPUSCULAR HEMOGLOBIN CONCENTRATION” value [3] was 38.93 G/DL. The “MEAN CORPUSCULAR VOLUME” value [3] was 61.3 fL, the MONOCYTE [3] was 0.67% and the NEUTROPHIL [3] was 10%. The “NUCLEATED RED BLOOD CELLS” value [3] was 0 /100WBC, the “PLATELET COUNT” value [3] was 1219.33 x10E3/uL and the “ALANINE AMINOTRANSFERASE” value [3] was 61.67 u/L. The ALBUMIN [3] was 4.3 G/DL, the “ALKALINE PHOSPHATASE” value [3] was 331.33 u/L and the “ASPARTATE AMINOTRANSFERASE” value [3] was 91 u/L. For the same compound, the “BLOOD UREA NITROGEN” value [3] was 14.67 mg/dL, the “CARBON DIOXIDE” value [3] was 28.67 mmol/L and the CHLORIDE [3] was 102 MEQ/L. The CHOLESTEROL [3] was 83.33 mg/dL, the “CREATINE PHOSPHOKINASE” value [3] was 520 u/L and the CREATININE [3] was 0.17 mg/dL. For the same compound, the GLUCOSE [3] was 157 mg/dL, the “LACTATE DEHYDROGENASE” value [3] was 238.67 u/L and the LIPASE [3] was 11 u/L. The PHOSPHORUS [3] was 11.7 mg/dL, the POTASSIUM [3] was 6.45 MEQ/L and the SODIUM [3] was 144.67 MEQ/L. For the same compound, the “TOTAL BILIRUBIN” value [3] was 0.2 mg/dL, the “TOTAL PROTEIN” value [3] was 6.53 G/DL and the “URIC ACID” value [3] was 2.47 mg/dL.
